Measurements from a compilation of properties of binary mixtures (doi:10.1016/j.molliq.2020.114720).

Assay: xn = mol fraction of the nth substance listed
Conditions: 101 kPa

CC(=O)[O-].CCCCC[n+]1ccccc1 + O
electrical conductivity [S/m]
Conditions	x1 = 0.9143	x1 = 0.9163	x1 = 0.9314	x1 = 0.948	x1 = 0.9673	x2 = 0.0023
293.15 K	0.0061	–	–	0.0049	0.0043	0.0034
298.15 K	0.0106	–	0.0094	–	0.007	0.0053
303.15 K	0.0175	0.0173	–	0.0128	0.0112	0.0081
308.15 K	0.024	–	–	0.0185	0.0162	0.0121
313.15 K	0.036	–	0.0335	0.029	0.0245	0.0179
318.15 K	0.051	–	0.0438	–	–	0.0266
323.15 K	0.071	–	0.0623	0.0532	0.0459	–
328.15 K	0.093	0.092	–	0.0715	0.061	0.045
333.15 K	–	0.125	0.111	0.095	0.0805	0.0572
338.15 K	–	0.171	0.151	–	0.109	0.0766
343.15 K	0.226	0.222	–	0.17	0.138	0.0955
